Each structure is given as a SMILES string.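 Cultured in 96-well plates, cells were exposed to test compound for 48 hours across five concentrations. TGI is the concentration that stops growth completely.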

The test system of the first test is MOLT-4 leukemia. The test is described as follows: NCI tumour cell line growth inhibition, 48 h.
For the compound `CC(=O)C1=C(C)NC2C=CC=CN12` (centres undefined), the TGI was over 100 µM.
The compound `Cc1cc(C)[n+](CCOc2ccc(/C(=C(/Cl)c3ccccc3)c3ccccc3)cc2)c(C)c1` returned a TGI of 11.3 µM.
Compound `CC(=O)Nc1cc2c(s1)CCC1CC(=O)NN=C21` (centres undefined) came in with a TGI of over 100 µM.
`CC(C)C(=O)/C=C/c1ccc(Br)cc1` returned a TGI of 95.9 µM.

In another test the test system is SK-MEL-2 melanoma. The test is described as follows: NCI tumour cell line growth inhibition, 48 h.
The compound `CC(=O)C1=C(C)NC2C=CC=CN12` (centres undefined) came in with a TGI of over 100 µM.
In turn, `Cc1cc(C)[n+](CCOc2ccc(/C(=C(/Cl)c3ccccc3)c3ccccc3)cc2)c(C)c1` came in with a TGI of 2.18 µM.
As to `CC(=O)Nc1cc2c(s1)CCC1CC(=O)NN=C21` (centres undefined), the TGI was over 100 µM.
On the same count and under the same terms, then `CC(C)C(=O)/C=C/c1ccc(Br)cc1`, with 29.7 µM.

The test system of the next test is OVCAR-5 ovarian. The test is described as follows: NCI tumour cell line growth inhibition, 48 h.
`CC(=O)C1=C(C)NC2C=CC=CN12` (centres undefined) yielded a TGI of over 100 µM.
As for `Cc1cc(C)[n+](CCOc2ccc(/C(=C(/Cl)c3ccccc3)c3ccccc3)cc2)c(C)c1`, the TGI was 12.4 µM.
Take `CC(=O)Nc1cc2c(s1)CCC1CC(=O)NN=C21` (centres undefined): the TGI is over 100 µM.
`CC(C)C(=O)/C=C/c1ccc(Br)cc1` returned a TGI of 27.5 µM.

The test system of another test is SK-MEL-5 melanoma. The test is described as follows: NCI tumour cell line growth inhibition, 48 h.
In the case of `CC(=O)C1=C(C)NC2C=CC=CN12` (centres undefined), the TGI was over 100 µM.
For the compound `Cc1cc(C)[n+](CCOc2ccc(/C(=C(/Cl)c3ccccc3)c3ccccc3)cc2)c(C)c1`, the TGI is 1.64 µM.
For the compound `CC(=O)Nc1cc2c(s1)CCC1CC(=O)NN=C21` (centres undefined), the TGI was over 100 µM.
Take `CC(C)C(=O)/C=C/c1ccc(Br)cc1`: the TGI amounted to 26.6 µM.

The test system of another test is DMS 273 small cell lung. Kind of test: NCI tumour cell line growth inhibition, 48 h.
Compound `CC(=O)C1=C(C)NC2C=CC=CN12` (centres undefined) showed a TGI of over 100 µM.
`Cc1cc(C)[n+](CCOc2ccc(/C(=C(/Cl)c3ccccc3)c3ccccc3)cc2)c(C)c1` gave a TGI of 1.48 µM.
Compound `CC(=O)Nc1cc2c(s1)CCC1CC(=O)NN=C21` (centres undefined) gave a TGI of over 100 µM.
`CC(C)C(=O)/C=C/c1ccc(Br)cc1` showed a TGI of 28.7 µM.

A further test deals with SK-OV-3 ovarian. Kind of test: NCI tumour cell line growth inhibition, 48 h.
`CC(=O)C1=C(C)NC2C=CC=CN12` (centres undefined) came in with a TGI of over 100 µM.
Compound `Cc1cc(C)[n+](CCOc2ccc(/C(=C(/Cl)c3ccccc3)c3ccccc3)cc2)c(C)c1` came in with a TGI of 6.54 µM.
Compound `CC(C)C(=O)/C=C/c1ccc(Br)cc1` yielded a TGI of 49.6 µM.

Another test concerns OVCAR-4 ovarian. The test is described as follows: NCI tumour cell line growth inhibition, 48 h.
`CC(=O)C1=C(C)NC2C=CC=CN12` (centres undefined) gave a TGI of over 100 µM.
Consider `Cc1cc(C)[n+](CCOc2ccc(/C(=C(/Cl)c3ccccc3)c3ccccc3)cc2)c(C)c1`, for which the TGI stood at 13.5 µM.
In turn, `CC(=O)Nc1cc2c(s1)CCC1CC(=O)NN=C21` (centres undefined) registered a TGI of over 100 µM.
Still for that read-out and setting: then `CC(C)C(=O)/C=C/c1ccc(Br)cc1`, with 63.3 µM.

A further test relates to HOP-92 NSCLC. The test is described as follows: NCI tumour cell line growth inhibition, 48 h.
In turn, `CC(=O)C1=C(C)NC2C=CC=CN12` (centres undefined) displayed a TGI of over 100 µM.
Consider `Cc1cc(C)[n+](CCOc2ccc(/C(=C(/Cl)c3ccccc3)c3ccccc3)cc2)c(C)c1`, for which the TGI was 2.7 µM.
As to `CC(C)C(=O)/C=C/c1ccc(Br)cc1`, the TGI stood at 30.9 µM.

The subject of another test is MALME-3M melanoma. Kind of test: NCI tumour cell line growth inhibition, 48 h.
Take `CC(=O)C1=C(C)NC2C=CC=CN12` (centres undefined): the TGI was over 100 µM.
On the same count and under the same terms, then `Cc1cc(C)[n+](CCOc2ccc(/C(=C(/Cl)c3ccccc3)c3ccccc3)cc2)c(C)c1`, with 3.64 µM.
As for `CC(=O)Nc1cc2c(s1)CCC1CC(=O)NN=C21` (centres undefined), the TGI is over 100 µM.

A further test relates to A549 NSCLC. Kind of test: NCI tumour cell line growth inhibition, 48 h.
`CC(=O)C1=C(C)NC2C=CC=CN12` (centres undefined) gave a TGI of over 100 µM.
Take `Cc1cc(C)[n+](CCOc2ccc(/C(=C(/Cl)c3ccccc3)c3ccccc3)cc2)c(C)c1`: the TGI stood at 17.4 µM.
The same measure, in the same setting: then `CC(=O)Nc1cc2c(s1)CCC1CC(=O)NN=C21` (centres undefined), with over 100 µM; and `CC(C)C(=O)/C=C/c1ccc(Br)cc1`, with 65.5 µM.

The test system of a further test is NCI-H23 lung. Kind of test: NCI tumour cell line growth inhibition, 48 h.
Consider `CC(=O)C1=C(C)NC2C=CC=CN12` (centres undefined), for which the TGI is over 100 µM.
Consider `Cc1cc(C)[n+](CCOc2ccc(/C(=C(/Cl)c3ccccc3)c3ccccc3)cc2)c(C)c1`, for which the TGI came out at 6.94 µM.
The same measure, in the same setting: then `CC(=O)Nc1cc2c(s1)CCC1CC(=O)NN=C21` (centres undefined), with over 100 µM; and `CC(C)C(=O)/C=C/c1ccc(Br)cc1`, with 38.2 µM.

A further test deals with NCI-H522 lung. Kind of test: NCI tumour cell line growth inhibition, 48 h.
On to `CC(=O)C1=C(C)NC2C=CC=CN12` (centres undefined), for which the TGI was over 100 µM.
The compound `Cc1cc(C)[n+](CCOc2ccc(/C(=C(/Cl)c3ccccc3)c3ccccc3)cc2)c(C)c1` displayed a TGI of 2.62 µM.
Compound `CC(=O)Nc1cc2c(s1)CCC1CC(=O)NN=C21` (centres undefined) gave a TGI of over 100 µM.
On the same count and under the same terms, to `CC(C)C(=O)/C=C/c1ccc(Br)cc1` belongs 41.5 µM.

A further test deals with A498 renal. The test is described as follows: NCI tumour cell line growth inhibition, 48 h.
`CC(=O)C1=C(C)NC2C=CC=CN12` (centres undefined) had a TGI of over 100 µM.
Take `Cc1cc(C)[n+](CCOc2ccc(/C(=C(/Cl)c3ccccc3)c3ccccc3)cc2)c(C)c1`: the TGI came out at 30.2 µM.
In turn, `CC(C)C(=O)/C=C/c1ccc(Br)cc1` gave a TGI of 28 µM.

In the next test the test system is IGROV1 ovarian. Kind of test: NCI tumour cell line growth inhibition, 48 h.
For the compound `CC(=O)C1=C(C)NC2C=CC=CN12` (centres undefined), the TGI was over 100 µM.
On the same count and under the same terms, to `Cc1cc(C)[n+](CCOc2ccc(/C(=C(/Cl)c3ccccc3)c3ccccc3)cc2)c(C)c1` belongs 2.33 µM.
Consider `CC(=O)Nc1cc2c(s1)CCC1CC(=O)NN=C21` (centres undefined), for which the TGI was over 100 µM.
In the case of `CC(C)C(=O)/C=C/c1ccc(Br)cc1`, the TGI amounted to 34.5 µM.

A further test deals with HOP-62 NSCLC. Kind of test: NCI tumour cell line growth inhibition, 48 h.
Regarding `CC(=O)C1=C(C)NC2C=CC=CN12` (centres undefined), the TGI is over 100 µM.
In turn, `Cc1cc(C)[n+](CCOc2ccc(/C(=C(/Cl)c3ccccc3)c3ccccc3)cc2)c(C)c1` had a TGI of 9.06 µM.

Values taken from PubChem BioAssay (NCI).
